Measured values reported in PMC6968775, “Assessment of contribution of BCRP to intestinal absorption of various drugs using portal‐systemic blood concentration difference model in mice” (Pharmacology Research & Perspectives, 2020).

Columns and labels:
[1] = human; cited from earlier work
[2] = tested on: P‐gp; conditions: in vivo (mice); calculated from F a F g in WT, Bcrp(−/−) and Mdr1a/1b(−/−) mice (Eq. 12)
[3] = Pharmacokinetics after iv and oral administration, P‐S difference method, Mdr1a/1b(−/−) mice; type: in vivo
Experimental: (§1) Male Mdr1a/1b(−/−) and Bcrp(−/−) mice, and WT mice of the same genetic background (FVB) were obtained from Taconic Farms (Germantown, NY, USA). […] Food and water were available ad libitum. All experiments were carried out in accordance with the principles and procedures outlined in the National Institutes of Health Guide for the Care and Use of Laboratory.
(§2) All the mice were fasted overnight with free access to tap water. In the intravenous administration studies, model compounds were administered via the tail vein at doses of 1 mg/kg (n = 3). Following administration, blood samples were collected from the abdominal vein of the anesthetized mice at 0.083, 0.17, 0.5, 1, 2, 4, and 8 hours. […] Following administration, blood samples were taken from the portal and abdominal veins of the anesthetized mice at 0.083, 0.17, 0.5, 1, 2, 4, and 8 hours. The plasma samples were separated by centrifugation at 14 000g for 10 minutes at 4°C and stored at −30°C until analysis.
(§3) After organic layer was evaporated at 60°C, the resultant residues were dissolved in a mobile phase. For the determination of topotecan and sulfasalazine, plasma samples were mixed with acetonitrile, centrifuged at 750 g for 10 minutes at 4°C, and the supernatants were collected. After the evaporation of the supernatants, the residues were dissolved in a mobile phase, and acidified with phosphoric acid for topotecan. All drugs were analyzed by HPLC system (Shimadzu LC‐10AS pump, Shimadzu SIL‐10A autosampler) equipped with a reverse‐phase column (COSMOSIL 5C18‐AR‐II, 3.5‐μm […], 4.6 × 150 mm).
(§4) Elimination rate constant (k e) was determined by the least squares regression analysis of plasma concentration vs time curve. Elimination half‐life (t 1/2) was calculated using Eq.1:(1) t1/2=ln2/ke
(§5) Area under plasma concentration‐time curve (AUC) and area under the first moment curve (AUMC) from time 0 to infinity were calculated by trapezoidal rule.
(§6) Absorption rate constant (k a) after oral administration was calculated by the nonlinear least squares fitting with program MULTI.12
(§7) BA was calculated by Eq.5:(7) BA=AUCoral/AUCiv×Doseiv/Doseoral×100 where AUCoral is AUC after oral administration. Doseiv and Doseoral are administered dose in the intravenous and oral administration study, respectively.
(§8) Hepatic availability (F h) was calculated by Eq.6:(8) Fh=F/Fa×Fg

[4] = Pharmacokinetics after iv and oral administration, P‐S difference method, wild‐type mice; type: in vivo
Experimental: as §1, §2, §3, §4, §5, §6, §7, §8

[5] = Pharmacokinetics after iv and oral administration, P‐S difference method, Bcrp(−/−) mice; type: in vivo
Experimental: as §1, §2, §3, §4, §5, §6, §7, §8

[6] = tested on: P‐gp; conditions: Caco‐2 permeability study; unpublished data; ref Fujita et al, manuscript in preparation; cited from earlier work
[7] = Blood/plasma concentration ratio (R b) in fresh whole blood; type: in vitro ADME, FVB mice; conditions: fresh whole blood, FVB mouse whole blood, 37°C
Experimental: Similarly, the model compounds were added to plasma, and reference blood samples were obtained according to the same procedure. These concentrations of drugs in each sample were analyzed using HPLC (C B and C P, respectively). R b value was calculated by dividing C B by C P.

[8] = Mdr1a/1b(−/−) mice, p.o. (ciprofloxacin 1, nitrofurantoin 2, topotecan 1, sulfasalazine 5 mg/kg)
[9] = male, Mdr1a/1b(−/−) (FVB background), mouse, systemic plasma (abdominal vein), po
[10] = wild‐type mice, p.o. (ciprofloxacin 1, nitrofurantoin 2, topotecan 1, sulfasalazine 5 mg/kg)
[11] = wild‐type mice, p.o. (ciprofloxacin 1, nitrofurantoin 2, topotecan 1, sulfasalazine 5 mg/kg), systemic (sys) plasma
[12] = Bcrp(−/−) mice, p.o. (ciprofloxacin 1, nitrofurantoin 2, topotecan 1, sulfasalazine 5 mg/kg)
[13] = Bcrp(−/−) mice, p.o. (ciprofloxacin 1, nitrofurantoin 2, topotecan 1, sulfasalazine 5 mg/kg), systemic (sys) plasma

O=C(O)c1cc(/N=N/c2ccc(S(=O)(=O)Nc3ccccn3)cc2)ccc1O [sulfasalazine, Sulfasalazine]
AUC after oral administration, patients heterozygous variant for the BCRP SNP vs normal BCRP [1]: approximately 2 fold
human BA [1]: < 15%
human F a F g [1]: 12%
R P‐gp (rate of P‐gp contribution) [2]: 0.09
F h [3, 8]: 55.6%
k a [3, 8]: 0.93 h⁻¹
BA ([3]; Mdr1a/1b(−/−) mice, p.o. (ciprofloxacin 1, nitrofurantoin 2, topotecan 1, sulfasalazine 5 mg/kg) vs iv 1 mg/kg): 11.5%
F a F g ([3]; Mdr1a/1b(−/−) mice, p.o. (ciprofloxacin 1, nitrofurantoin 2, topotecan 1, sulfasalazine 5 mg/kg), P‐S difference method): 30%
k a, P‐gp ([3]; Table 5 summary, Mdr1a/1b(−/−) mice, oral administration): 0.93
(F a F g)P‐gp ([3]; as fraction, Mdr1a/1b(−/−) mice, oral administration): 0.30
clearance ([3]; male, FVB Mdr1a/1b(−/−), mouse, plasma (systemic, abdominal vein), Mdr1a/1b(−/−) mice, iv 1 mg/kg, read-out: CL tot (converted)): 9.83 mL/min/kg
Vd ([3]; male, FVB Mdr1a/1b(−/−), mouse, plasma (systemic, abdominal vein), Mdr1a/1b(−/−) mice, iv 1 mg/kg, read-out: Vdss): 0.45 L/kg
half-life ([3]; male, Mdr1a/1b(−/−) (FVB background), mouse, plasma, Mdr1a/1b(−/−) mice, iv 1 mg/kg): 97.8 min
AUC(0-inf) ([3]; male, Mdr1a/1b(−/−) (FVB background), mouse, plasma, Mdr1a/1b(−/−) mice, iv 1 mg/kg, read-out: AUC 0→∞): 4.28 µM·h
Tmax ([3]; male, Mdr1a/1b(−/−) (FVB background), mouse, portal vein plasma, po): 10.2 min
Tmax [3, 9]: 30 min
half-life [3, 9]: 66.6 min
k a, wt ([4]; Table 5 summary, WT mice, oral administration): 1.40
C0 ([4]; male, FVB (wild-type), mouse, plasma (systemic, abdominal vein), WT mice, intravenous injection 1 mg/kg, read-out: extrapolated plasma concentration at zero time (C 0)): 11.7 µM
clearance ([4]; male, FVB (wild-type), mouse, plasma (systemic, abdominal vein), wild‐type mice, iv 1 mg/kg, read-out: CL tot (converted)): 11 mL/min/kg
Vd ([4]; male, FVB (wild-type), mouse, plasma (systemic, abdominal vein), wild‐type mice, iv 1 mg/kg, read-out: Vdss): 0.59 L/kg
half-life ([4]; male, FVB (wild-type), mouse, plasma, iv, 1 mg/kg, wild‐type mice, iv 1 mg/kg): 117 min
AUC(0-inf) ([4]; male, FVB (wild-type), mouse, plasma, iv, 1 mg/kg, wild‐type mice, iv 1 mg/kg, read-out: AUC 0→∞): 3.82 µM·h
Tmax ([4]; male, FVB (wild-type), mouse, portal vein plasma, po): 10.2 min
AUC(0-inf) ([4]; male, FVB (wild-type), mouse, portal vein plasma, po, wild‐type mice, p.o. (ciprofloxacin 1, nitrofurantoin 2, topotecan 1, sulfasalazine 5 mg/kg), portal vein (pv) plasma, read-out: AUC 0→∞ (AUCpv)): 2.2 µM·h
Tmax ([4]; male, FVB (wild-type), mouse, systemic plasma (abdominal vein), po): 30 min
half-life ([4]; male, FVB (wild-type), mouse, systemic plasma (abdominal vein), po, wild‐type mice, p.o. (ciprofloxacin 1, nitrofurantoin 2, topotecan 1, sulfasalazine 5 mg/kg), systemic (sys) plasma): 60 min
AUC(0-inf) ([4]; male, FVB (wild-type), mouse, systemic plasma (abdominal vein), po, wild‐type mice, p.o. (ciprofloxacin 1, nitrofurantoin 2, topotecan 1, sulfasalazine 5 mg/kg), systemic (sys) plasma, read-out: AUC 0→∞ (AUCsys)): 1.94 µM·h
F h [4, 10]: 60.1%
k a [4, 10]: 1.40 h⁻¹
BA ([4]; wild‐type mice, p.o. (ciprofloxacin 1, nitrofurantoin 2, topotecan 1, sulfasalazine 5 mg/kg) vs iv 1 mg/kg): 10.2%
F a F g ([4]; wild‐type mice, p.o. (ciprofloxacin 1, nitrofurantoin 2, topotecan 1, sulfasalazine 5 mg/kg), P‐S difference method): 16.9%
AUC 0→∞ (AUCpv) ([4]; wild‐type mice, p.o. (ciprofloxacin 1, nitrofurantoin 2, topotecan 1, sulfasalazine 5 mg/kg), portal vein (pv) plasma): 2200 nmol·h/L
AUC 0→∞ (AUCsys) [4, 11]: 1940 nmol·h/L
t 1/2 [4, 11]: 1.11 h
F h [5, 12]: 73.2%
k a [5, 12]: 0.49 h⁻¹
BA ([5]; Bcrp(−/−) mice, p.o. (ciprofloxacin 1, nitrofurantoin 2, topotecan 1, sulfasalazine 5 mg/kg) vs iv 1 mg/kg): 95.2%
AUC 0→∞ (AUCpv) ([5]; Bcrp(−/−) mice, p.o. (ciprofloxacin 1, nitrofurantoin 2, topotecan 1, sulfasalazine 5 mg/kg), portal vein (pv) plasma): 290 000 nmol/L·h
AUC 0→∞ (AUCsys) [5, 13]: 288 000 nmol/L·h
t 1/2 [5, 13]: 7.07 h
k a, bcrp ([5]; Table 5 summary, Bcrp(−/−) mice, oral administration): 0.49
(F a F g)bcrp ([5]; as fraction, Bcrp(−/−) mice, oral administration): 1.30
half-life ([5]; male, Bcrp(−/−) (FVB background), mouse, plasma, iv, 1 mg/kg, Bcrp(−/−) mice, iv 1 mg/kg): 214 min
Tmax ([5]; male, Bcrp(−/−) (FVB background), mouse, portal vein plasma, po): 2 h
Tmax ([5]; male, Bcrp(−/−) (FVB background), mouse, systemic plasma (abdominal vein), po): 2 h
AUC(0-inf) ([5]; male, FVB Bcrp(−/−), mouse, plasma (systemic, abdominal vein), iv, 1 mg/kg, Bcrp(−/−) mice, iv 1 mg/kg, read-out: AUC 0→∞): 60.5 µM·h
C0 ([5]; male, FVB Bcrp(−/−), mouse, plasma (systemic, abdominal vein), Bcrp(−/−) mice, intravenous injection 1 mg/kg, read-out: extrapolated plasma concentration at zero time (C 0)): 18.1 µM
clearance ([5]; male, FVB Bcrp(−/−), mouse, plasma (systemic, abdominal vein), Bcrp(−/−) mice, iv 1 mg/kg, read-out: CL tot (converted)): 0.667 mL/min/kg
Vd ([5]; male, FVB Bcrp(−/−), mouse, plasma (systemic, abdominal vein), Bcrp(−/−) mice, iv 1 mg/kg, read-out: Vdss): 0.19 L/kg
AUC(0-inf) ([5]; male, FVB Bcrp(−/−), mouse, portal vein plasma, po, Bcrp(−/−) mice, p.o. (ciprofloxacin 1, nitrofurantoin 2, topotecan 1, sulfasalazine 5 mg/kg), portal vein (pv) plasma, read-out: AUC 0→∞ (AUCpv)): 290 µM·h
half-life ([5]; male, FVB Bcrp(−/−), mouse, systemic plasma (abdominal vein), po, Bcrp(−/−) mice, p.o. (ciprofloxacin 1, nitrofurantoin 2, topotecan 1, sulfasalazine 5 mg/kg), systemic (sys) plasma): 420 min
AUC(0-inf) ([5]; male, FVB Bcrp(−/−), mouse, systemic plasma (abdominal vein), po, Bcrp(−/−) mice, p.o. (ciprofloxacin 1, nitrofurantoin 2, topotecan 1, sulfasalazine 5 mg/kg), systemic (sys) plasma, read-out: AUC 0→∞ (AUCsys)): 288 µM·h
AUC pv and AUC sys after oral administration, Bcrp(−/−) mice vs WT mice ([5]; oral administration): more than 130 fold
AQp‐gp in vitro (Caco‐2) [6]: 0.05
blood plasma ratio at 15 min, 1 µg/mL [7]: 1.28 ± 0.03
